# Calls of active or inactive are those of the source.
# How the values were obtained:
# [1] = biological target: T1, Polyadenylate-binding protein 1 (Homo sapiens, UniProt P11940); assay: PABP1 MLLE–PAM2 binding inhibitor potency, dose response, biochemical, fluorescence polarization, FITC-PAM2 peptide (AID 602259); assay type: functional; details: read-out: IC50_Mean
# [2] = biological target: T1, Polyadenylate-binding protein 1; assay: PABP1 MLLE–PAM2 interaction inhibitors, dose response, miRNA deadenylation inhibitor project, biochemical, fluorescence polarization, Cy5-PAM2 peptide, secondary (AID 602260); assay type: functional; details: read-out: IC50_Mean
# [3] = biological target: T2, DNA repair protein RAD52 homolog (Homo sapiens, UniProt P43351); assay type: functional, biochemical
# T2 sequence (P43351 whole entry): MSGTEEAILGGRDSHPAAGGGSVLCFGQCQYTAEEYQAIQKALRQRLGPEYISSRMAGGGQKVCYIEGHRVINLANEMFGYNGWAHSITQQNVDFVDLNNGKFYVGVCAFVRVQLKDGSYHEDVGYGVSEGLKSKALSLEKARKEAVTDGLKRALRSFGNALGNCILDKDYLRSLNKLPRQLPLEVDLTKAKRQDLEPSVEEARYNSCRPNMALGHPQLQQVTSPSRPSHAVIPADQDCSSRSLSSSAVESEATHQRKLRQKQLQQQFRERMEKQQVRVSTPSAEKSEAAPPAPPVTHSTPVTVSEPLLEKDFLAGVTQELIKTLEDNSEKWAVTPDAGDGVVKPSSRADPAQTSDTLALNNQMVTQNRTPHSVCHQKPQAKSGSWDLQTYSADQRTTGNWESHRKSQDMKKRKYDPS
# [4] = growth suppression of beta-catenin-knockout colon cells, dose response, cell-based, HCT116, human colon tumor (AID 1045); assay type: functional;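 also: HCT116 colon tumor cells with beta catenin knocked out; cells exposed to compound for 60 hours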
# [5] = growth suppression of PTEN-null colon cells, dose response, cell-based, HCT116 PTEN knockout (AID 1047); assay type: functional;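 also: HCT116 colon tumor cells with PTEN knocked out; cells exposed to compound for 60 hours before readout; potency for loss of cell viability measured by luminescence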
# [6] = system: SN12K1; assay: cells; assay type: functional; details: Homo sapiens
# [7] = system: P388; assay: cells; assay type: functional; details: Mus musculus
# [8] = system: P388/ADR; assay: cells; assay type: functional; details: Mus musculus
# [9] = cells; assay type: functional
# [10] = THP-1 cell cytotoxicity, dose response, cytotoxicity control for non-replicating M. tuberculosis project (AID 489025); assay type: functional
# [11] = microbe, parasite or virus in culture; assay type: functional; details: Mycobacterium tuberculosis
# [12] = Vero E6 cell cytotoxicity, dose response, cytotoxicity control for non-replicating M. tuberculosis project, secondary assay (AID 492998); assay type: functional, VeroE6; details: Vero C1008
# [13] = biological target: T3, Ubiquitin-conjugating enzyme E2 N (Homo sapiens, UniProt P61088); assay type: functional;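 also: Dose-response confirmation in a TR-FRET assay detecting UBC13-driven polyubiquitin chain formation, inhibition measured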
# T3 sequence (P61088 whole entry): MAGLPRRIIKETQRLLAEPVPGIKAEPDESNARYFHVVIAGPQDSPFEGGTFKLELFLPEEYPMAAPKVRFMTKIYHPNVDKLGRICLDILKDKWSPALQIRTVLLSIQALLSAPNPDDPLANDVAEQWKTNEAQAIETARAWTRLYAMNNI
# [14] = biological target: DNA dC->dU-editing enzyme APOBEC-3A (Homo sapiens, UniProt P31941); assay: APOBEC3A DNA deaminase inhibitors, dose response, biochemical (AID 504722); assay type: functional
# [15] = biological target: DNA dC->dU-editing enzyme APOBEC-3G (Homo sapiens, UniProt Q9HC16); assay: Dose Response confirmation of small molecule APOBEC3G DNA Deaminase Inhibitors via a fluorescence-based single-stranded DNA deaminase assay. [Related pubchem assays (depositor defined):AID493012, AID493028]; assay type: functional
# [16] = biological target: FAD-linked sulfhydryl oxidase ALR (Homo sapiens, UniProt P55789); assay: inhibitors of human ALR sulfhydryl oxidase, dose response, biochemical, H2O2 detection, luminescence, cherry-pick (AID 493248)
# [17] = LGR2 antagonists, dose response, cell-based, HEK293, CRE-luciferase reporter, cherry pick, set 2 (AID 743343); assay type: functional;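 also: transfected cells were stimulated with diluted bursicon conditioned medium after compound addition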
# [18] = MC4R antagonists, dose response, counter-screen for LGR2 antagonist project, cell-based, plate reader, cherry pick (AID 743444); assay type: functional;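 also: transfected HEK 293 cells stimulated with alpha-MSH peptide; potency of inhibitors of the alpha-MSH evoked signal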
# [19] = biological target: T4, Histone-lysine N-methyltransferase NSD2 (Homo sapiens, UniProt O96028); assay type: biochemical
# T4 sequence (O96028 whole entry): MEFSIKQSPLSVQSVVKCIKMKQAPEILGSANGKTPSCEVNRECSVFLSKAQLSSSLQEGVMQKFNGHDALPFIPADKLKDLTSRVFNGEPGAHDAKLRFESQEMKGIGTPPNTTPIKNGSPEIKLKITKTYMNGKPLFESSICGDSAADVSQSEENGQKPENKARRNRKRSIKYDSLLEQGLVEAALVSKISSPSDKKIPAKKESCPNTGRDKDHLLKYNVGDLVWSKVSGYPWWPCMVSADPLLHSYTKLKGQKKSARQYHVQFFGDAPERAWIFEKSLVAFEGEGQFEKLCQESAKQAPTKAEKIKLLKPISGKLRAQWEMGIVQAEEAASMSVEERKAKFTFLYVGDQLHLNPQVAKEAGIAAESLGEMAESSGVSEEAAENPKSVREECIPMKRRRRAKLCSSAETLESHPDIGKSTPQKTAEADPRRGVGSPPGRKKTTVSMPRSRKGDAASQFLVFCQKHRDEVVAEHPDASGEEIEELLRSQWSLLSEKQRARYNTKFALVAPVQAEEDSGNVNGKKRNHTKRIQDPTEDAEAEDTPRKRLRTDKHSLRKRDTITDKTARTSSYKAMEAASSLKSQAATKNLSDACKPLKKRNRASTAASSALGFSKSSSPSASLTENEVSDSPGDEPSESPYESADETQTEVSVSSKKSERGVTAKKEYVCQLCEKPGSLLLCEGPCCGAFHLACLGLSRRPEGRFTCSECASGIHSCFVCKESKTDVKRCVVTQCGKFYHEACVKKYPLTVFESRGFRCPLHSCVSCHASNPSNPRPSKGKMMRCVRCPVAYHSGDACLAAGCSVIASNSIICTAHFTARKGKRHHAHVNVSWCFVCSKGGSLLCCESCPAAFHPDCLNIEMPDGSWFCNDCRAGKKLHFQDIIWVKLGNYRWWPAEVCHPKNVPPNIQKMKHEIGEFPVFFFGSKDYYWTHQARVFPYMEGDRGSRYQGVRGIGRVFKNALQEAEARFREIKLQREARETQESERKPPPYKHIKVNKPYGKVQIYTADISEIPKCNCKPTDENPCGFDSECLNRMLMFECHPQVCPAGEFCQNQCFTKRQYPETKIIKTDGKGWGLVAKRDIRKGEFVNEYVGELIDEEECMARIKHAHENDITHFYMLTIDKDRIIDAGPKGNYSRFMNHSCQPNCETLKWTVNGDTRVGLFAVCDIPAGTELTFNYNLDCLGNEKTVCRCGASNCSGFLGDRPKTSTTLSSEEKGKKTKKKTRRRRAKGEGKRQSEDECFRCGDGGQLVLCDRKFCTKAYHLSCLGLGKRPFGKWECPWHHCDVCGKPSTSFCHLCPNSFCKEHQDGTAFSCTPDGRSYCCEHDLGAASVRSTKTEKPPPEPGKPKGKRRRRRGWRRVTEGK
# [20] = biological target: T5, Rac GTPase-activating protein 1 (Homo sapiens, UniProt Q9H0H5); assay: MgcRacGAP GTPase-activating activity inhibitors, confirmation, biochemical, ADP Hunter fluorescence, primary and confirmatory (AID 624330); assay type: functional
# T5 sequence (Q9H0H5 whole entry): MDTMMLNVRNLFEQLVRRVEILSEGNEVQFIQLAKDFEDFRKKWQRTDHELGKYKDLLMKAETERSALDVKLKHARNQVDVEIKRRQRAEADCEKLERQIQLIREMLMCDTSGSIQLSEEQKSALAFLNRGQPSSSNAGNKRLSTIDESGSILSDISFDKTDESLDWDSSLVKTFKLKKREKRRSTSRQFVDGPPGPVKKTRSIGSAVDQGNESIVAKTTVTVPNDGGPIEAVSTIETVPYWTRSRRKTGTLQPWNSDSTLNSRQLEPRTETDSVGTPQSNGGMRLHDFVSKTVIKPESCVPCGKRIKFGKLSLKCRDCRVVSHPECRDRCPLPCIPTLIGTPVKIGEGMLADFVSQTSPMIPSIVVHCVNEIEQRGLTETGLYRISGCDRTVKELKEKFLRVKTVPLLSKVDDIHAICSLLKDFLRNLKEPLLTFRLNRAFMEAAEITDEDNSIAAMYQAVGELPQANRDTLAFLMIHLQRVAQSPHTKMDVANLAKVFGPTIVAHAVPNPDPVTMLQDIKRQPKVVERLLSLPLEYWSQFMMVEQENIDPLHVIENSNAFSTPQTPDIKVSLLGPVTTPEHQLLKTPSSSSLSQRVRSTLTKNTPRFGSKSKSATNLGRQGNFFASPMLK
# [21] = system: H4; assay: Luminescence Cell-Based Dose Response HTS to Identify Activators of 5'UTR Stem-Loop Driven Prion Protein mRNA Translation in H4 Neuroglioblastoma Cells. [Related pubchem assays: 1829 (Project Summary), 1814 (Primary HTS)]; assay type: functional; details: Homo sapiens
# [22] = Luminescence Cell-Based Dose Response HTS to Identify Activators of Luciferase Translation or Activity in H4 […] Cells. [Related pubchem assays: 1829 (Project Summary), 1814 (Primary HTS)]; assay type: functional
# [23] = Luminescence Cell-Based Dose Confirmation HTS to Identify Activators of 5'UTR Stem-Loop Driven Alpha-Synuclein mRNA Translation in H4 Neuroglioblastoma Cells. [Related pubchem assays: 1829 (Project Summary), 1814 (Primary HTS)]; assay type: functional
# T1 sequence (P11940 whole entry): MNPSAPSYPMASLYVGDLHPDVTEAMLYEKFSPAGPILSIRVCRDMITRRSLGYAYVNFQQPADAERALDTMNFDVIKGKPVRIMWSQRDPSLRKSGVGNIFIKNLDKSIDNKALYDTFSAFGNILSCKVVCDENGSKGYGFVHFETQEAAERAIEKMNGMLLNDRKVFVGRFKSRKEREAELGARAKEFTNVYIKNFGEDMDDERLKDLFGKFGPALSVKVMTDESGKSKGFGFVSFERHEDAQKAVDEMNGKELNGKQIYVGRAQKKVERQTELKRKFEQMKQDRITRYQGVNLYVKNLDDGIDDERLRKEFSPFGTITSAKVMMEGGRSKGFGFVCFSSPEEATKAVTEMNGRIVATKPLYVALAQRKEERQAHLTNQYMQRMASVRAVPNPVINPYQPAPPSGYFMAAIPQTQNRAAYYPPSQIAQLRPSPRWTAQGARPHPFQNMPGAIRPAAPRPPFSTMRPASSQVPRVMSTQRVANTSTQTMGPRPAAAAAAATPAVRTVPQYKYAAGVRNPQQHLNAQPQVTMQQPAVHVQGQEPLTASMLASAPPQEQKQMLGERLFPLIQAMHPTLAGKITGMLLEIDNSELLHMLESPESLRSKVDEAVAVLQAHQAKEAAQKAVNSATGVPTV
# FAD-linked sulfhydryl oxidase ALR, sequence (P55789 whole entry): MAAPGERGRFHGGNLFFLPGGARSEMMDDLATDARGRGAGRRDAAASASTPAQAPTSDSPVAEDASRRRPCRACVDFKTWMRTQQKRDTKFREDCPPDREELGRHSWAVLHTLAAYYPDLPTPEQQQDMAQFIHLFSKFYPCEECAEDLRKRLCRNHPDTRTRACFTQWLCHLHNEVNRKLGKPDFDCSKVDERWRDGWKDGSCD
# DNA dC->dU-editing enzyme APOBEC-3G, sequence (Q9HC16 whole entry): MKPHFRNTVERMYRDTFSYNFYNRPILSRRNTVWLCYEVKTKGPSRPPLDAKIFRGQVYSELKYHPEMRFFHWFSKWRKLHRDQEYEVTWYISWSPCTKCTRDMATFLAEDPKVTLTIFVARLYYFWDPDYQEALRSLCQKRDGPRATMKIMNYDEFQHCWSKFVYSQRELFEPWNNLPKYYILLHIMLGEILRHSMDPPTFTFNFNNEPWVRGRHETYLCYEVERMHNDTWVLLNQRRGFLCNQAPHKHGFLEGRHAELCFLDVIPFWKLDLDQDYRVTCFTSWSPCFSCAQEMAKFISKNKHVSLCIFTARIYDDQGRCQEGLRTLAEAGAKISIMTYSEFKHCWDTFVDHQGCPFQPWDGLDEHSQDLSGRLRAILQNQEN
# DNA dC->dU-editing enzyme APOBEC-3A, sequence (P31941 whole entry): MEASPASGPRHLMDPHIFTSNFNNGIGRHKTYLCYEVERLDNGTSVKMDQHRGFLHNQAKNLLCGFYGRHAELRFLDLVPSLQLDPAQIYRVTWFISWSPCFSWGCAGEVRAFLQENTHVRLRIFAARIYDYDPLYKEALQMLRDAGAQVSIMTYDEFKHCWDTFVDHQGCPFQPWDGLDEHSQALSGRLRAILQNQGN
smiles,measurement,setting,value
FC(F)(F)c1cccc(NC(S)=Nc2cccc(N=C(S)Nc3cccc(C(F)(F)F)c3)n2)c1,IC50,[1],> 66 µM (inactive)
same,IC50,[2],> 66 µM (inactive)
CN(C)CCN(C)Cc1ccccc1Sc1cccc2ccccc12,AC50,[3],11.2 µM (active)
same,EC50,[4],10.6 µM (active)
same,EC50,[5],12.8 µM (active)
COc1cc(-c2ccc(/N=N/c3c(S(=O)(=O)O)cc4cc(S(=O)(=O)O)cc(N)c4c3O)c(OC)c2)ccc1/N=N/c1c(S(=O)(=O)O)cc2cc(S(=O)(=O)O)cc(N)c2c1O,GI50,[6],> 100 µM (inactive)
same,GI50,[7],> 100 µM (inactive)
O=NN(CCCl)C(=O)NC1CCC(=O)NC1=O (stereo not drawn),GI50,[6],107 µM (inactive)
same,GI50,[7],17.8 µM (inactive)
same,GI50,[8],23.4 µM (inactive)
CCCCCn1c(=O)c2ccccc2n2c(CCl)nnc12,IC50,[9],0.67 µM (active)
same,CC50,[10],19.2 µM (active)
same,CC50,[11],11.7 µM (active)
same,CC50,[12],> 20 µM (active)
CN(C)CCCNc1nc2sc3c(c2c(=O)n1CCc1ccccc1)CCCCC3,IC50,[9],23.3 µM (active)
same,CC50,[10],19.5 µM (active)
same,IC50,[13],> 20 µM (inactive)
same,CC50,[12],14.4 µM (active)
C[C@H]1CC[C@H](NC(=O)N(CCCl)N=O)CC1,GI50,[6],26 µM (inactive)
same,GI50,[7],9.53 µM (inactive)
same,GI50,[8],9.73 µM (inactive)
COc1ccc2c(c1)CCN1C2CCN2C(=O)CCC21 (stereo not drawn),IC50,[1],> 66 µM (inactive)
same,IC50,[2],> 66 µM (inactive)
CCC[S+]([O-])c1nc(COC(=O)NC)c(COC(=O)NC)n1C (stereo not drawn),GI50,[6],> 100 µM (inactive)
same,GI50,[7],> 100 µM (inactive)
same,GI50,[8],> 100 µM (inactive)
CCn1c(CSc2nc3ccccc3[nH]2)n[nH]c1=S,IC50,[14],> 100 µM (inactive)
same,IC50,[15],5.44 µM (active)
COc1ccc(N=C(S)NC23CN4CN(CN(C4)C2)C3)c(OC)c1,AC50,[3],16.3 µM (active)
Cc1nnc(S)n1/N=C/c1ccc(-c2ccccc2[N+](=O)[O-])o1,IC50,[14],> 100 µM (inactive)
same,IC50,[15],4.2 µM (active)
CC(=O)NCCCc1c[nH]c2ccc(Cl)cc12,AC50,[16],13.5 µM (active)
COc1ccc(N)cc1NC(=O)CN1CCCC1,AC50,[3],9.95 µM (active)
same,AC50,[16],7.58 µM (active)
Clc1nnc(N2CCCCC2)c2ccccc12,AC50,[16],17.1 µM (active)
COC1C(C)OC(OC2CC(C)(O)Cc3cc4c(c(O)c32)C(=O)c2c(O)cc3c(c2C4=O)OC2OC3(C)C(O)C(N(C)C)C2O)C(OC)C1(C)OC (stereo not drawn),GI50,[6],0.0168 µM (active)
same,GI50,[7],0.0228 µM (active)
same,GI50,[8],0.5 µM (active)
O=C(c1cc(-c2ccc(Cl)cc2Cl)on1)N1CCCC1,AC50,[17],5.36 µM (active)
same,AC50,[18],5.47 µM (active)
N#Cc1cc2cc3c(cc2nc1NCCNC(=S)NCCCN1CCOCC1)OCO3,AC50,[3],14.1 µM (active)
COc1cc[n+](C)cc1,GI50,[6],> 100 µM (inactive)
same,GI50,[7],> 100 µM (inactive)
same,GI50,[8],> 100 µM (inactive)
S=P(N1CC1)(N1CC1)N1CC1 [THIOTEPA],GI50,[6],> 89.1 µM (inactive)
same,GI50,[7],6.93 µM (inactive)
same,GI50,[8],7.41 µM (inactive)
COc1ccc(S(=O)(=O)N2CCCCC2)cc1NC(=O)Cc1ccsc1,AC50,[19],17.1 µM (active)
CC1(C)CC(=O)c2cnn(-c3nc4ccccc4[nH]3)c2C1,AC50,[16],14.8 µM (active)
COc1cccc(/C=C2\SC(N3CCCC(C)C3)=NC2=O)c1OC (stereo not drawn),AC50,[16],5.2 µM (active)
COc1ccc(C)cc1NCc1ccc(OC)c(C)c1OC,IC50,[20],59.5 µM (active)
same,AC50,[19],> 20 µM (inactive)
C[C@@H]1[C@@H](Sc2ccccc2)CC(=O)O[C@@H]1c1ccc(-c2ccccc2)cc1,EC50,[21],> 120 µM (not active)
same,IC50,[1],> 66 µM (inactive)
same,EC50,[22],> 120 µM (not active)
same,EC50,[23],> 120 µM (not active)
same,IC50,[2],> 66 µM (inactive)
Nc1ccc(-c2nc3cc(N)ccc3s2)cc1,AC50,[16],1.43 µM (active)
